Assay results taken from US11344510B2, “Arylcyclohexylamine derivatives and their use in the treatment of psychiatric disorders” (Gilgamesh Pharmaceuticals, Inc., priority 2019, dated 2022).
Entries after “also recorded” stand apart in the source; their conditions may differ.

Legend:
[1] = HLM stability (Low Activity, Alternative Method); assay type: in vitro ADME; conditions: both sexes, human, liver microsomes, pH 7.4, Condition 1 column, values marked *: Low Activity, 0.50 mg protein/mL
Procedure: (§1) HLM Stability (Low Activity, Alternative Method). Pooled HLM from adult male and female donors (Corning 452117) were used. Microsomal incubations were carried out in multi-well plates. Liver microsomal incubation medium consisted of PBS (100 mM, pH 7.4), MgCl2 (1 mM), and NADPH (1 mM), with 0.50 mg of liver microsomal protein per mL. Control incubations were performed by replacing the NADPH-cofactor system with PBS. Test compounds (1 μM, final solvent concentration 1.0%) were incubated with microsomes at 37° C. with constant shaking. Six time points over 60 minutes were analyzed, with 60 μL aliquots of the reaction mixture being drawn at each time point. The reaction aliquots were stopped by adding 180 μL of cold (4° C.) acetonitrile containing 200 ng/mL tolbutamide and 200 ng/mL labetalol as internal standards (IS), followed by shaking for 10 minutes, and then protein sedimentation by centrifugation at 4000 rpm for 20 minutes at 4° C. Supernatant samples (80 μL) were diluted with water (240 μL) and analyzed for parent compound remaining using a fit-for-purpose liquid chromatography-tandem mass spectrometry (LC-MS/MS) method.
(§2) Data Analysis. The elimination constant (kel), half-life (t1/2) and intrinsic clearance (Clint) were determined in a plot of […] versus time, using linear regression analysis.

[2] = MLM stability (Low Activity); assay type: in vitro ADME, CD-1 mice; conditions: male, CD-1, mouse, liver microsomes, pH 7.4, Condition 1 (Low Activity), 0.50 mg protein/mL
Procedure: as §1, with “MLM” for “HLM”, “Activity).” for “Activity, Alternative Method).”, “from” for “from adult”, “CD-1 mice (XenoTech M1000)” for “and female donors (Corning 452117)”
as §2

[3] = RLM stability (Low Activity); assay type: in vitro ADME, Sprague Dawley rats; conditions: male, Sprague Dawley, rat, liver microsomes, pH 7.4, Condition 1 (Low Activity), 0.50 mg protein/mL
Procedure: as §1, with “RLM” for “HLM”, “Activity).” for “Activity, Alternative Method).”, “from” for “from adult”, “Sprague Dawley rats (XenoTech R1000)” for “and female donors (Corning 452117)”
as §2

[4] = biological target: MK-801 binding site of the N-methyl-D-aspartate receptor (NMDAR); experiment: NMDAR radioligand binding with [3H]MK-801, Method B; parameters: species or system Sprague Dawley rat; conditions: MK-801 site, Method B, male Sprague Dawley rat cortex, 5.0 nM [3H]MK-801; read-out: NMDAR Ki ± SEM
Procedure: Radioligand Binding—Method B. Affinity of the test compounds for NMDAR was determined in radioligand binding experiments with [^3H]MK-801 by WuXi AppTec (Hong Kong) Limited, under the conditions described in Table 13.

[5] = biological target: T1, serotonin transporter (SERT) (Homo sapiens, UniProt P31645); experiment: Fluorescent substrate uptake inhibition, SERT; assay type: cell-based; conditions: for inhibition at 10 µM: HEK293 cells expressing SERT
T1 construct: expressed in transfected cells; host or cells: HEK293
T1 sequence (P31645 whole entry, species assumed): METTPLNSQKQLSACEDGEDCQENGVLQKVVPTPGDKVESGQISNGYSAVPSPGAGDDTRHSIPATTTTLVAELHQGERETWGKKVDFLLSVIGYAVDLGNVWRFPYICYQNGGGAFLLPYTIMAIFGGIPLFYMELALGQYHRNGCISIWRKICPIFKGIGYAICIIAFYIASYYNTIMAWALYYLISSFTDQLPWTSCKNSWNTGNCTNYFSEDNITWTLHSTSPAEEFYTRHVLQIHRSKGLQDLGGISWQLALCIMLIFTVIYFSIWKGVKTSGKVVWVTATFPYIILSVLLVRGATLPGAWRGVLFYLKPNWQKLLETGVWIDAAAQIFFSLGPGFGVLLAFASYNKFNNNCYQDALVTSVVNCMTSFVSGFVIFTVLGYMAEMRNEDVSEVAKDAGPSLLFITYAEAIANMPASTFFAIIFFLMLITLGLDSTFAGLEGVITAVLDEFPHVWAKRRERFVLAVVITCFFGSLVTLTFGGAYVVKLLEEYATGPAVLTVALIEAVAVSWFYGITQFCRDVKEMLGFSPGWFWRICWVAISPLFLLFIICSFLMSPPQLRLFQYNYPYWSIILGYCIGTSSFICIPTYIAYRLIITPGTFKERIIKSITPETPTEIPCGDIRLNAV

[6] = biological target: T2, norepinephrine transporter (NET) (Homo sapiens, UniProt P23975); experiment: Fluorescent substrate uptake inhibition, NET; assay type: cell-based; conditions: 10 μM, HEK293 cells expressing NET
T2 construct: expressed in transfected cells; host or cells: HEK293
T2 sequence (P23975 whole entry, species assumed): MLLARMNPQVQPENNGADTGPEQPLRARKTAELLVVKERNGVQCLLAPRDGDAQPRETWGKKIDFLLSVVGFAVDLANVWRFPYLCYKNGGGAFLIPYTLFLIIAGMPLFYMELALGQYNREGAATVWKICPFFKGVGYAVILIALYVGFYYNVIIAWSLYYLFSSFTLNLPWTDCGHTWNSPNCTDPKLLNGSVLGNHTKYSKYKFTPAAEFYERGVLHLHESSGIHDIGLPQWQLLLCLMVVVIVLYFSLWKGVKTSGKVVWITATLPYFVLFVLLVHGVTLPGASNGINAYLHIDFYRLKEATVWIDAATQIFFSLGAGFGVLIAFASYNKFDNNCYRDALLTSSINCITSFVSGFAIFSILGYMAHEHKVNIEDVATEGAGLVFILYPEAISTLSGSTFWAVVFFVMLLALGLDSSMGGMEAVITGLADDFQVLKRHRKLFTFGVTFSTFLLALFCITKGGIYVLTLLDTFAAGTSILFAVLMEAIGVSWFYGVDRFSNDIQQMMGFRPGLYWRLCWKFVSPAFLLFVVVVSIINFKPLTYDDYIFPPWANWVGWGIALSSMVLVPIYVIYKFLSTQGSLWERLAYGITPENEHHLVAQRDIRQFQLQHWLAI

[7] = biological target: T3, dopamine transporter (DAT) (Homo sapiens, UniProt Q01959); experiment: Fluorescent substrate uptake inhibition, DAT; assay type: cell-based; conditions: 10 μM, CHO cells expressing DAT
T3 construct: expressed in transfected cells; host or cells: CHO (uptake)
T3 sequence (Q01959 whole entry, species assumed): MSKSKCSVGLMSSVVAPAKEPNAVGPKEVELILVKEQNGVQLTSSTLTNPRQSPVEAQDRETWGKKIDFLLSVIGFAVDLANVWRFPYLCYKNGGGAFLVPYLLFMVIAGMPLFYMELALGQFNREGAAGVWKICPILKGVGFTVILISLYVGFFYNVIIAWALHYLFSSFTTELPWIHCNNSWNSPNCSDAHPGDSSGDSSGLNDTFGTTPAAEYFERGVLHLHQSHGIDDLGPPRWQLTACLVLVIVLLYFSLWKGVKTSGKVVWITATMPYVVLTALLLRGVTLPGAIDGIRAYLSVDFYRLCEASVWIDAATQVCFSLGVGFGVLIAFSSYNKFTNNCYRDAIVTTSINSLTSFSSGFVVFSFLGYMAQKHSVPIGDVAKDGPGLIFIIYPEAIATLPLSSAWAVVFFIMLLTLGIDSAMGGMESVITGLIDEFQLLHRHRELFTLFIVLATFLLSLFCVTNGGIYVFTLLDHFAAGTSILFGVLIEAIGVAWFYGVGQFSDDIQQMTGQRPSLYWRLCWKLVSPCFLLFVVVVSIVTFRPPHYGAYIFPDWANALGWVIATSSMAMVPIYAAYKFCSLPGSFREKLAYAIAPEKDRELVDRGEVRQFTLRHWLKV

[8] = biological target: T4, vesicular monoamine transporter 2 (VMAT2) (Homo sapiens, UniProt Q05940); experiment: Fluorescent substrate uptake inhibition, VMAT2; assay type: cell-based; conditions: 10 μM, transfected cells
T4 construct: expressed in transfected cells
T4 sequence (Q05940 whole entry, species assumed): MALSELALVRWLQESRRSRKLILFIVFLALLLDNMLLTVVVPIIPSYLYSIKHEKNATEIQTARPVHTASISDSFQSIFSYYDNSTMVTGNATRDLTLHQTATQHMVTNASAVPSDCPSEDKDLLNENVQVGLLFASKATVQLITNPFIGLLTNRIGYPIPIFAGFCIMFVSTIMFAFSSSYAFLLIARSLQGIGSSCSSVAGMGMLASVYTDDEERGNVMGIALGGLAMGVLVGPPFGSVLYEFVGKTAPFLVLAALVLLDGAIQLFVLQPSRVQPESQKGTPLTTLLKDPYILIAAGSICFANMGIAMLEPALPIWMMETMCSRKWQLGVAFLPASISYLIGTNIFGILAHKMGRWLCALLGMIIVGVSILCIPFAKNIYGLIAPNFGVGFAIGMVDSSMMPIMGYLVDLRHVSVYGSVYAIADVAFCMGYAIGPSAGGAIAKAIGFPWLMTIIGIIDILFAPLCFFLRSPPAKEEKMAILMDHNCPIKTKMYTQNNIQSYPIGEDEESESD

[9] = biological target: T5, SERT (Homo sapiens, UniProt P31645); experiment: SERT radioligand binding with [3H]imipramine
T5 construct: expressed in transfected cells; host or cells: HEK293
T5 sequence (P31645 whole entry, species assumed): as the sequence (P31645 whole entry, species assumed) above
Procedure: Radioligand Binding. Affinity of the test compounds for SERT, NET, and DAT was determined in radioligand binding experiments with [^3H]imipramine, [^3]nisoxetine, and [^3H]WIN35,428, respectively, by WuXi AppTec (Hong Kong) Limited, under the conditions described in Table 15.

[10] = test system: CSDS-susceptible mice; experiment: Behavioral tests after chronic social defeat stress (CSDS); assay type: in vivo, C57BL/6 mice
[11] = biological target: MK-801 binding site of the N-methyl-D-aspartate receptor (NMDAR); experiment: NMDAR radioligand binding with [3H]MK-801, Method A; parameters: species or system Wistar rat; conditions: for Ki: MK-801 site, Method A, Wistar rat brain (minus cerebellum), 5.0 nM [3H]MK-801, read-out: NMDAR Ki ± SEM
Procedure: Radioligand Binding—Method A. Affinity of the test compounds for NMDAR was determined in radioligand binding experiments with [^3H]MK-801 by Eurofins Panlabs, Inc., using methods adapted from the literature (Javitt et al. 1987; Reynolds et al. 1989) and under the conditions described in Table 12.

[12] = test system: monoamine transporters, MATs (SERT, NET, DAT, VMAT2); experiment: Monoamine uptake inhibition, monoamine transporters collectively; assay type: cell-based; conditions: in words
Procedure: The ability of the compounds of the present invention to inhibit uptake of monoamines by the serotonin transporter (SERT), norepinephrine transporter (NET), dopamine transporter (DAT), and vesicular monoamine transporter 2 (VMAT2) (collectively monoamine transporters, MATs) was measured using fluorescent substrate uptake assays in transfected cells (Table 14). The binding affinities of select compounds were also determined in radioligand displacement assays at SERT, NET, and/or DAT (Table 14).
Uptake Inhibition. The ability of test compounds to block monoamine uptake by SERT, NET, DAT, and VMAT2 was determined using the Neurotransmitter Transporter Uptake Assay Kit manufactured by Molecular Devices (Cat #R8173). Briefly, stably transfected cells expressing the MAT of interest (HEK293 cells for SERT and NET; CHO cells for DAT) were grown and plated into 384-well plates at a concentration of 20,000 cells per well. Plates were then incubated for 16-20 h at 37° C. and 5% CO2. The medium was then aspirated and replaced with 25 μL of assay buffer (20 mM HEPES in HBSS, containing 0.1% BSA) containing the test compounds at the appropriate concentrations. Plates were then centrifuged at 300 rpm for 15 s and then incubated at 37° C. for 30 minutes. At this time, 25 μL of the proprietary fluorescent dye solution was added, the plates were incubated at 37° C. for 60 minutes, and then fluorescence was quantified on a plate reader (excitation wavelength=440 nm, emission wavelength=520 nm). The proprietary dye solution contains a mixture of 1) a fluorescent dye that mimics the endogenous substrates of MATs and is thereby actively transported to the intracellular compartment in the absence of an inhibitor and 2) a masking dye that inhibits the fluorescence of dye 1 in the extracellular compartment. Therefore, the overall fluorescence of the system increases as the fluorescent dye is transported into the cells.

[13] = 14.4 mg/kg i.p. as hydrogen tartrate salts

SMILES: CC(C)N[C@@]1(c2ccccc2)CCCCC1=O [Compound 28R, (R)-2-(isopropylamino)-2-phenylcyclohexan-1-one]
- half-life at 1 μM [1]: 69.4 min
- microsomal CLint at 1 μM [1]: 20 µL/min/mg
- half-life at 1 μM [2]: 11.3 min
- microsomal CLint at 1 μM [2]: 123 µL/min/mg
- half-life at 1 μM [3]: 26.3 min
- microsomal CLint at 1 μM [3]: 52.6 µL/min/mg
- Ki [4]: > 23 µM
- IC50 [5]: 7.3 µM
- inhibition at 10 µM [5]: 37.2%
- inhibition at 10 µM [6]: 11.4%
- inhibition at 10 µM [7]: 16.5%
- inhibition at 10 µM [8]: -11.4%
- Ki [9]: 8.6 µM

SMILES: CNC1(c2ccccc2I)CCCCC1=O (racemic) [Compound 37rac, 2-(2-Iodophenyl)-2-(methylamino)cyclohexan-1-one]
- antidepressant-like activity in behavioral tests after CSDS (TST, FST, SPT) ([10]; 10 mg/kg i.p., single dose): not effective
- antidepressant-like activity in behavioral tests after CSDS (TST, FST, SPT) ([10]; 30 mg/kg i.p., single dose): only partially effective

SMILES: CN[C@]1(c2ccccc2F)CCCCC1=O [Compound 35S, (S)-2-(2-Fluorophenyl)-2-(methylamino)cyclohexan-1-one]
- Ki [11]: 0.79 ± 0.21 µM
- antidepressant-like activity in behavioral tests after CSDS (TST, FST, SPT) [10, 13]: induced antidepressant-like effects

SMILES: CN[C@@]1(c2ccccc2F)CCCCC1=O [Compound 35R, (R)-2-(2-Fluorophenyl)-2-(methylamino)cyclohexan-1-one]
- Ki [11]: 3.91 ± 0.4 µM
- NMDAR binding, comparison in words ([11]; vs 35S, 35rac, racemic ketamine and R-ketamine): weaker NMDAR binding
- antidepressant-like activity in behavioral tests after CSDS (TST, FST, SPT) [10, 13]: induced antidepressant-like effects; also recorded: more robust and longer lasting

SMILES: CNC1(c2ccccc2Cl)CCCCC1=O (racemic) [racemic ketamine, reference compound]
- antidepressant-like activity in behavioral tests after CSDS (TST, FST, SPT) ([10]; 10 mg/kg i.p., single dose): effective

SMILES: CNC1(c2ccc(F)cc2)CCCCC1=O (racemic) [Compound 18rac, 2-(4-fluorophenyl)-2-(methylamino)cyclohexan-1-one]
- half-life at 1 μM [1]: > 145 min
- microsomal CLint at 1 μM [1]: < 9.6 µL/min/mg
- microsomal CLint at 1 μM [2]: 13.7 µL/min/mg
- microsomal CLint at 1 μM [3]: 19.6 µL/min/mg
- Ki [4]: 4.5 µM
- inhibition at 10 µM [5]: 25.2%
- inhibition at 10 µM [6]: 16%
- inhibition at 10 µM [7]: 21.4%
- inhibition at 10 µM [8]: 20.2%
- selectivity for NMDAR (over MATs) [12]: greater selectivity for NMDAR
